For assay [1], the system named is NA with combination of G248R and K249E mutations. Particulars: 'low levels' of resistance; cited from earlier work.
Assay [2] addresses influenza A/H3N2 NA, wild-type (baseline) at loci 93, 155, 251 (Influenza A virus (H3N2), UniProt V9SU56). It is filed as biochemical. Conditions: wild-type (baseline) at each locus; 10 samples tested; mean; read-out: mean drug concentration required to inhibit 50% NA activity.

Data on 3 molecules can be found in publication PMC4311985, “Molecular Surveillance of Antiviral Drug Resistance of Influenza A/H3N2 Virus in Singapore, 2009-2013” (PLoS ONE, 2015).

SMILES strings stand for the structures.

For the molecule `CCOC(=O)C1=C[C@@H](OC(CC)CC)[C@H](NC(C)=O)[C@@H](N)C1` [Oseltamivir, oseltamivir], the IC50 increase in assay [1] was less than 10 fold. As to `CCC(CC)[C@H](NC(C)=O)[C@@H]1[C@H](O)[C@@H](C(=O)O)C[C@H]1N=C(N)N` [Peramivir, peramivir], the IC50 in assay [2] was 0.2 ± 0.1 nM. `CC(=O)N[C@H]1[C@H]([C@H](O)[C@H](O)CO)OC(C(=O)O)=C[C@@H]1N=C(N)N` [Zanamivir, zanamivir]: the IC50 increase in assay [1] is less than 10 fold.
